Laboratory results published in patent US9102638B2, “Amidobenzothiazoles and process for the preparation thereof” (COUNCIL OF SCIENTIFIC & INDUSTRIAL RESEARCH, priority 2011, dated 2015).

Tests used:
Type in all cases: cell-based
CCRF-CEM = assay: In vitro cytotoxicity, NCI sixty cell line screen: CCRF-CEM (Leukemia); details: Homo sapiens, Leukemia panel, NCI protocol, read-out: GI50 values (μM conc.)
Description: (§1) The in vitro anticancer activity studies for these amidobenzothiazoles were carried out at the National Cancer Institute, Maryland, USA.
(§2) The amidobenzothiazoles have been tested against sixty human tumor cell lines derived from nine cancer types (leukemia cancer cell line, non-small cell lung cancer cell line, colon cancer cell line, CNS cancer cell line, melanoma cancer cell line, ovarian cancer cell line, renal cancer cell line, prostate cancer cell line and breast cancer cell lines). For these compounds results are expressed in GI50 values of that particular cancer cell at micro molar (μM) concentration as per NCI protocol.

MOLT-4 = assay: In vitro cytotoxicity, NCI screen: MOLT-4 (Leukemia); details: Homo sapiens; MOLT-4, Leukemia panel, NCI protocol; read-out: GI50 values (μM conc.)
Description: as §1, §2

RPMI-8226 = assay: In vitro cytotoxicity, NCI screen: RPMI-8226 (Leukemia); details: Homo sapiens; RPMI-8226, Leukemia panel, NCI protocol; read-out: GI50 values (μM conc.)
Description: as §1, §2

SR = assay: In vitro cytotoxicity, NCI screen: SR (Leukemia); details: Homo sapiens, Leukemia panel, NCI protocol, read-out: GI50 values (μM conc.)
Description: as §1, §2

EKVX = assay: In vitro cytotoxicity, NCI screen: EKVX (Non-small cell lung); details: Homo sapiens, Non-small cell lung panel, NCI protocol, read-out: GI50 values (μM conc.)
Description: as §1, §2

HOP-62 = assay: In vitro cytotoxicity, NCI screen: HOP-62 (Non-small cell lung); details: Homo sapiens; HOP-62, Non-small cell lung panel, NCI protocol; read-out: GI50 values (μM conc.)
Description: as §1, §2

HOP-92 = assay: In vitro cytotoxicity, NCI screen: HOP-92 (Non-small cell lung); details: Homo sapiens; HOP-92, Non-small cell lung panel, NCI protocol; read-out: GI50 values (μM conc.)
Description: as §1, §2

NCI-H23 = assay: In vitro cytotoxicity, NCI screen: NCI-H23 (Non-small cell lung); details: Homo sapiens; NCI-H23, Non-small cell lung panel, NCI protocol; read-out: GI50 values (μM conc.)
Description: as §1, §2

NCI-H460 = assay: In vitro cytotoxicity, NCI screen: NCI-H460 (Non-small cell lung); details: Homo sapiens; NCI-H460, Non-small cell lung panel, NCI protocol; read-out: GI50 values (μM conc.)
Description: as §1, §2

NCI-H522 = assay: In vitro cytotoxicity, NCI screen: NCI-H522 (Non-small cell lung); details: Homo sapiens; NCI-H522, Non-small cell lung panel, NCI protocol; read-out: GI50 values (μM conc.)
Description: as §1, §2

HCT-116 = assay: In vitro cytotoxicity, NCI screen: HCT-116 (Colon); details: Homo sapiens, read-out: GI50 values (μM conc.)
Description: as §1, §2

HCT-15 = assay: In vitro cytotoxicity, NCI screen: HCT-15 (Colon); details: Homo sapiens; HCT-15, Colon panel, NCI protocol; read-out: GI50 values (μM conc.)
Description: as §1, §2

HT29 = assay: In vitro cytotoxicity, NCI screen: HT29 (Colon); details: Homo sapiens, HT-29; HT29, Colon panel, NCI protocol; read-out: GI50 values (μM conc.)
Description: as §1, §2

SF-268 = assay: In vitro cytotoxicity, NCI screen: SF-268 (CNS); details: Homo sapiens, read-out: GI50 values (μM conc.)
Description: as §1, §2

SF-295 = assay: In vitro cytotoxicity, NCI screen: SF-295 (CNS); details: Homo sapiens; SF-295, CNS panel, NCI protocol; read-out: GI50 values (μM conc.)
Description: as §1, §2

SF-539 = assay: In vitro cytotoxicity, NCI screen: SF-539 (CNS); details: Homo sapiens, read-out: GI50 values (μM conc.)
Description: as §1, §2

SNB-19 = assay: In vitro cytotoxicity, NCI screen: SNB-19 (CNS); details: Homo sapiens; SNB-19, CNS panel, NCI protocol; read-out: GI50 values (μM conc.)
Description: as §1, §2

U251 = assay: In vitro cytotoxicity, NCI screen: U251 (CNS); details: Homo sapiens, U-251; U251, CNS panel, NCI protocol; read-out: GI50 values (μM conc.)
Description: as §1, §2

MALME-3M = assay: In vitro cytotoxicity, NCI screen: MALME-3M (Melanoma); details: Homo sapiens, Melanoma panel, NCI protocol, read-out: GI50 values (μM conc.)
Description: as §1, §2

M14 = assay: In vitro cytotoxicity, NCI screen: M14 (Melanoma); details: Homo sapiens; M14, Melanoma panel, NCI protocol; read-out: GI50 values (μM conc.)
Description: as §1, §2

SK-MEL-2 = assay: In vitro cytotoxicity, NCI screen: SK-MEL-2 (Melanoma); details: Homo sapiens; SK-MEL-2, Melanoma panel, NCI protocol; read-out: GI50 values (μM conc.)
Description: as §1, §2

OVCAR-3 = assay: In vitro cytotoxicity, NCI screen: OVCAR-3 (Ovarian); details: Homo sapiens; OVCAR-3, Ovarian panel, NCI protocol; read-out: GI50 values (μM conc.)
Description: as §1, §2

OVCAR-8 = assay: In vitro cytotoxicity, NCI screen: OVCAR-8 (Ovarian); details: Homo sapiens; OVCAR-8, Ovarian panel, NCI protocol; read-out: GI50 values (μM conc.)
Description: as §1, §2

A498 = assay: In vitro cytotoxicity, NCI screen: A498 (Renal); details: Homo sapiens; A498, Renal panel, NCI protocol; read-out: GI50 values (μM conc.)
Description: as §1, §2

ACHN = assay: In vitro cytotoxicity, NCI screen: ACHN (Renal); details: Homo sapiens, Renal panel, NCI protocol, read-out: GI50 values (μM conc.)
Description: as §1, §2

CAKI-1 = assay: In vitro cytotoxicity, NCI screen: CAKI-1 (Renal); details: Homo sapiens; CAKI-1, Renal panel, NCI protocol; read-out: GI50 values (μM conc.)
Description: as §1, §2

RXF 393 = assay: In vitro cytotoxicity, NCI screen: RXF 393 (Renal); details: Homo sapiens; RXF 393, Renal panel, NCI protocol; read-out: GI50 values (μM conc.)
Description: as §1, §2

SN12C = assay: In vitro cytotoxicity, NCI screen: SN12C (Renal); details: Homo sapiens, Renal panel, NCI protocol, read-out: GI50 values (μM conc.)
Description: as §1, §2

PC-3 = assay: In vitro cytotoxicity, NCI screen: PC-3 (Prostate); details: Homo sapiens; PC-3, Prostate panel, NCI protocol; read-out: GI50 values (μM conc.)
Description: as §1, §2

MDA-MB-231/ATCC = assay: In vitro cytotoxicity, NCI screen: MDA-MB-231/ATCC (Breast); details: Homo sapiens, Breast panel, NCI protocol, read-out: GI50 values (μM conc.)
Description: as §1, §2

MDA-MB-468 = assay: In vitro cytotoxicity, NCI screen: MDA-MB-468 (Breast); details: Homo sapiens, read-out: GI50 values (μM conc.)
Description: as §1, §2

[1] = system: leukemia cancer cell lines; assay: In vitro activity against leukemia cancer cell lines (panel range); details: Homo sapiens, read-out: GI50 values, range over the listed compounds and the panel
Description: as §1, §2

CNS cancer cell lines = assay: In vitro activity against CNS cancer cell lines (panel range); details: Homo sapiens, read-out: GI50 values, range over the listed compounds and the panel
Description: as §1, §2

SMILES	GI50 (CCRF-CEM) [µM]	GI50 (MOLT-4) [µM]	GI50 (RPMI-8226) [µM]	GI50 (SR) [µM]	GI50 (EKVX) [µM]	GI50 (HOP-62) [µM]	GI50 (HOP-92) [µM]	GI50 (NCI-H23) [µM]	GI50 (NCI-H460) [µM]	GI50 (NCI-H522) [µM]	GI50 (HCT-116) [µM]	GI50 (HCT-15) [µM]	GI50 (HT29) [µM]	GI50 (SF-268) [µM]	GI50 (SF-295) [µM]	GI50 (SF-539) [µM]	GI50 (SNB-19) [µM]	GI50 (U251) [µM]	GI50 (MALME-3M) [µM]	GI50 (M14) [µM]	also measured
COc1ccc(/C=C\c2cc(OC)c(OC)c(OC)c2)cc1OCC(=O)Nc1nc2ccc(C(F)(F)F)cc2s1 [Compound 8i, N1-(6-(trifluoromethyl)-1,3-benzothiazol-2-yl)-2-{2-methoxy-5-[(Z)-2-(3,4,5-trimethoxyphenyl)-1-ethenyl]phenoxy}acetamide]	4.27	3.75	5.48	3.35	6.25	5.22	2.88	3.9	3.55	2.89	3.29	3.24	14.9	3.85	3.36	2.66	5.03	3.67	> 100	3.58	GI50 (SK-MEL-2): 3.98 µM; GI50 (OVCAR-3): 2.11 µM; GI50 (OVCAR-8): 3.86 µM; GI50 (A498): 2.81 µM; GI50 (ACHN): 4.82 µM; GI50 (CAKI-1): 3.1 µM; GI50 (RXF 393): 2.27 µM; GI50 (SN12C): 4.43 µM; GI50 (PC-3): 4.32 µM; GI50 (MDA-MB-231/ATCC): 3.38 µM; GI50 (MDA-MB-468): 2.16 µM; GI50 [1]: 0.037 to 29.9 µM; GI50 (CNS cancer cell lines): 0.045 to 18.8 µM
COc1ccc(/C=C/C(=O)c2cc(OC)c(OC)c(OC)c2)cc1OCC(=O)Nc1nc2ccc(OC(F)(F)F)cc2s1 [Compound 9j, N1-(6-(trifluoromethoxy)-1,3-benzothiazol-2-yl)-2-{2-methoxy-5-[(E)-3-oxo-3-(3,4,5-trimethoxyphenyl)-1-propenyl]phenoxy}acetamide]	2.5	2.89	2.02	0.39	5.11	2.12	2.14	2.15	2.43	0.67	1.43	0.4	3.66	1.2	2.21	0.29	1.58	0.7	2.69	1.72	GI50 (SK-MEL-2): 4.97 µM; GI50 (OVCAR-3): 1.52 µM; GI50 (OVCAR-8): 1.54 µM; GI50 (A498): 7.4 µM; GI50 (ACHN): 1.62 µM; GI50 (CAKI-1): 2.2 µM; GI50 (RXF 393): 1.58 µM; GI50 (SN12C): 1.74 µM; GI50 (PC-3): 3.14 µM; GI50 (MDA-MB-231/ATCC): 2.01 µM; GI50 (MDA-MB-468): 3.52 µM; GI50 [1]: 0.037 to 29.9 µM; GI50 (CNS cancer cell lines): 0.045 to 18.8 µM
